Tests used:
[1] = tested on: SF-268; experiment: Growth inhibition of human SF268 cells assessed as cell growth at 100 uM incubated for 48 hrs by sulforhodamine B assay relative to control; format: functional; conditions: SF-268, 48 h, read-out: Activity
[2] = tested on: CAKI-1; experiment: Growth inhibition of human Caki1 cells assessed as cell growth at 1 uM incubated for 48 hrs by sulforhodamine B assay relative to control; format: functional; conditions: CAKI-1, 48 h, read-out: Activity
[3] = tested on: HL-60(TB); experiment: Growth inhibition of human HL-60(TB) cells assessed as cell growth at 0.1 uM incubated for 48 hrs by sulforhodamine B assay relative to control; format: functional; conditions: HL-60, 48 h, read-out: Activity
[4] = tested on: PC-3; experiment: Growth inhibition of human PC3 cells assessed as cell growth at 100 uM incubated for 48 hrs by sulforhodamine B assay relative to control; format: functional; conditions: PC-3, 48 h, read-out: Activity
[5] = tested on: DU-145; experiment: Growth inhibition of human DU145 cells assessed as cell growth at 1 uM incubated for 48 hrs by sulforhodamine B assay relative to control; format: functional; conditions: DU-145, 48 h, read-out: Activity
[6] = tested on: SK-MEL-2; experiment: Growth inhibition of human SK-MEL-2 cells incubated for 48 hrs by sulforhodamine B assay; format: functional, cell-based; conditions: SK-MEL-2, 48 h
[7] = tested on: RPMI-8226; experiment: Growth inhibition of human RPMI8226 cells assessed as cell growth at 0.1 uM incubated for 48 hrs by sulforhodamine B assay relative to control; format: functional; conditions: RPMI-8226, 48 h, read-out: Activity
[8] = tested on: NCI/ADR-RES; experiment: Growth inhibition of human NCI/ADR-RES cells assessed as cell growth at 1 uM incubated for 48 hrs by sulforhodamine B assay relative to control; format: functional; conditions: read-out: Activity
[9] = tested on: Hs-578T; experiment: Growth inhibition of human Hs578T cells assessed as cell growth at 100 uM incubated for 48 hrs by sulforhodamine B assay relative to control; format: functional; conditions: read-out: Activity
[10] = tested on: A549; experiment: Growth inhibition of human A549/ATCC cells assessed as cell growth at 100 uM incubated for 48 hrs by sulforhodamine B assay relative to control; format: functional; conditions: A549, 48 h, read-out: Activity
[11] = tested on: Malme-3M; experiment: Growth inhibition of human MALME-3M cells assessed as cell growth at 0.1 uM incubated for 48 hrs by sulforhodamine B assay relative to control; format: functional; conditions: read-out: Activity
[12] = tested on: UO-31; experiment: Growth inhibition of human UO31 cells assessed as cell growth at 100 uM incubated for 48 hrs by sulforhodamine B assay relative to control; format: functional; conditions: UO-31, 48 h, read-out: Activity
[13] = tested on: Hs-578T; experiment: Growth inhibition of human Hs578T cells incubated for 48 hrs by sulforhodamine B assay; format: functional, cell-based
[14] = tested on: SF-295; experiment: Growth inhibition of human SF295 cells assessed as cell growth at 100 uM incubated for 48 hrs by sulforhodamine B assay relative to control; format: functional; conditions: SF-295, 48 h, read-out: Activity
[15] = tested on: A549; experiment: Growth inhibition of human A549/ATCC cells incubated for 48 hrs by sulforhodamine B assay; format: functional, cell-based; conditions: A549, 48 h
[16] = tested on: DU-145; experiment: Growth inhibition of human DU145 cells incubated for 48 hrs by sulforhodamine B assay; format: functional, cell-based; conditions: DU-145, 48 h
[17] = tested on: MDA-MB-231; experiment: Growth inhibition of human MDA-MB-231 cells assessed as cell growth at 100 uM incubated for 48 hrs by sulforhodamine B assay relative to control; format: functional; conditions: MDA-MB-231, 48 h, read-out: Activity
[18] = tested on: HL-60(TB); experiment: Growth inhibition of human HL-60(TB) cells assessed as cell growth at 0.01 uM incubated for 48 hrs by sulforhodamine B assay relative to control; format: functional; conditions: HL-60, 48 h, read-out: Activity
[19] = tested on: HCC 2998; experiment: Growth inhibition of human HCC2998 cells incubated for 48 hrs by sulforhodamine B assay; format: functional, cell-based; conditions: HCC 2998, 48 h
[20] = tested on: PC-3; experiment: Growth inhibition of human PC3 cells incubated for 48 hrs by sulforhodamine B assay; format: functional, cell-based; conditions: PC-3, 48 h
[21] = tested on: MOLT-4; experiment: Growth inhibition of human MOLT4 cells incubated for 48 hrs by sulforhodamine B assay; format: functional, cell-based; conditions: MOLT-4, 48 h
[22] = tested on: ACHN; experiment: Growth inhibition of human ACHN cells assessed as cell growth at 100 uM incubated for 48 hrs by sulforhodamine B assay relative to control; format: functional; conditions: read-out: Activity
[23] = tested on: OVCAR-4; experiment: Growth inhibition of human OVCAR4 cells assessed as cell growth at 100 uM incubated for 48 hrs by sulforhodamine B assay relative to control; format: functional; conditions: OVCAR-4, 48 h, read-out: Activity
[24] = tested on: NCI-H522; experiment: Growth inhibition of human NCI-H522 cells assessed as cell growth at 0.01 uM incubated for 48 hrs by sulforhodamine B assay relative to control; format: functional; conditions: NCI-H522, 48 h, read-out: Activity
[25] = tested on: OVCAR-3; experiment: Growth inhibition of human OVCAR3 cells assessed as cell growth at 0.1 uM incubated for 48 hrs by sulforhodamine B assay relative to control; format: functional; conditions: OVCAR-3, 48 h, read-out: Activity
[26] = tested on: RXF 393; experiment: Growth inhibition of human RXF393 cells assessed as cell growth at 1 uM incubated for 48 hrs by sulforhodamine B assay relative to control; format: functional; conditions: RXF 393, 48 h, read-out: Activity
[27] = tested on: SW-620; experiment: Growth inhibition of human SW620 cells assessed as cell growth at 100 uM incubated for 48 hrs by sulforhodamine B assay relative to control; format: functional; conditions: SW-620, 48 h, read-out: Activity
[28] = tested on: MCF7; experiment: Growth inhibition of human MCF7 cells assessed as cell growth at 1 uM incubated for 48 hrs by sulforhodamine B assay relative to control; format: functional; conditions: MCF7, 48 h, read-out: Activity
[29] = read-out: LC50 (the source's name)
[30] = read-out: pLC50 (the source's name) (converted)

With `COc1cc(Cl)cc(-c2nn(-c3cccc(NC(=O)Nc4ccc(Cl)c(C(F)(F)F)c4)c3)cc2-c2ccncc2)c1` the growth at 100 µM [1] was -58%, the growth at 1 µM [2] was 45% and the growth at 0.1 µM [3] was 91%. For the same compound, the growth at 100 µM [4] was -15%, the growth at 1 µM [5] was 64% and the GI50 ([6]; read-out: GI50) was 1790 nM. The CC50 [6, 29] was 9.59 µM, the TGI ([6]; read-out: TGI) was 42.1 µM and the GI50 ([6]; read-out: pGI50 (converted)) was 1780 nM. It also gave a CC50 [6, 30] of 10 µM, a TGI ([6]; read-out: pTGI (converted)) of 4.37 µM and a growth at 0.1 µM [7] of 100%. The growth at 1 µM [8] was 66%, the growth at 100 µM [9] was -6% and the growth at 100 µM [10] was -76%. It also gave a growth at 0.1 µM [11] of 79%, a growth at 100 µM [12] of -50% and a GI50 ([13]; read-out: GI50) of 4.29 µM. For the same compound, the CC50 [13, 29] was greater than 100 µM, the TGI ([13]; read-out: TGI) was 67.7 µM and the GI50 ([13]; read-out: pGI50 (converted)) was 4.27 µM. The CC50 [13, 30] was greater than 100 µM, the TGI ([13]; read-out: pTGI (converted)) was 67.6 µM and the growth at 100 µM [14] was -82%. For the same compound, the IC50 [15] was 680 nM, the GI50 ([15]; read-out: GI50) was 676 nM and the CC50 [15, 29] was 4.32 µM. It also gave a TGI ([15]; read-out: TGI) of 10.6 µM, a GI50 ([15]; read-out: pGI50 (converted)) of 676 nM and a CC50 [15, 30] of 46.8 µM. The TGI ([15]; read-out: pTGI (converted)) was 10.7 µM, the GI50 ([16]; read-out: GI50) was 1550 nM and the CC50 [16, 29] was 55.2 µM. The TGI ([16]; read-out: TGI) was 14 µM, the GI50 ([16]; read-out: pGI50 (converted)) was 1860 nM and the CC50 [16, 30] was 56.2 µM. The TGI ([16]; read-out: pTGI (converted)) was 14.1 µM, the growth at 100 µM [17] was -88% and the growth at 0.01 µM [18] was 96%. The GI50 ([19]; read-out: GI50) was 2910 nM, the CC50 [19, 29] was 4.41 µM and the TGI ([19]; read-out: TGI) was 90.2 µM. It also gave a GI50 ([19]; read-out: pGI50 (converted)) of 2880 nM, a CC50 [19, 30] of 43.7 µM and a TGI ([19]; read-out: pTGI (converted)) of 9.12 µM. For the same compound, the IC50 [20] was 340 nM, the GI50 ([20]; read-out: GI50) was 342 nM and the CC50 [20, 29] was greater than 100 µM. For the same compound, the TGI ([20]; read-out: TGI) was 21.2 µM, the GI50 ([20]; read-out: pGI50 (converted)) was 339 nM and the CC50 [20, 30] was greater than 100 µM. For the same compound, the TGI ([20]; read-out: pTGI (converted)) was 2.14 µM, the GI50 ([21]; read-out: GI50) was 1230 nM and the CC50 [21, 29] was greater than 100 µM. The TGI ([21]; read-out: TGI) was 45.5 µM, the GI50 ([21]; read-out: pGI50 (converted)) was 1230 nM and the CC50 [21, 30] was greater than 100 µM. It also gave a TGI ([21]; read-out: pTGI (converted)) of 4.68 µM, a growth at 100 µM [22] of -31% and a growth at 100 µM [23] of -16%. It also gave a growth at 0.01 µM [24] of 93%, a growth at 0.1 µM [25] of 99% and a growth at 1 µM [26] of 78%. For the same compound, the growth at 100 µM [27] was -58% and the growth at 1 µM [28] was 50%.

— ChEMBL document CHEMBL4308841, “Synthesis, in vitro antiproliferative activity, and kinase inhibitory effects of pyrazole-containing diarylureas and diarylamides” (Eur J Med Chem, 2018)
